Earlier results, collected in patent publication US8877445B2, “Methods for identification of tumor phenotype and treatment” (Intelligent Oncotherapeutics, Inc., priority 2008, dated 2014).
Where no end group is shown, it is not given here. [ ]: non-standard residue; d: D form.

What was measured:
[1] = tested on: patients; conditions: clinical phase I trial
[2] = biological target: T1, FOXM1 (Homo sapiens, UniProt Q08050)
T1 sequence (Q08050 1-763): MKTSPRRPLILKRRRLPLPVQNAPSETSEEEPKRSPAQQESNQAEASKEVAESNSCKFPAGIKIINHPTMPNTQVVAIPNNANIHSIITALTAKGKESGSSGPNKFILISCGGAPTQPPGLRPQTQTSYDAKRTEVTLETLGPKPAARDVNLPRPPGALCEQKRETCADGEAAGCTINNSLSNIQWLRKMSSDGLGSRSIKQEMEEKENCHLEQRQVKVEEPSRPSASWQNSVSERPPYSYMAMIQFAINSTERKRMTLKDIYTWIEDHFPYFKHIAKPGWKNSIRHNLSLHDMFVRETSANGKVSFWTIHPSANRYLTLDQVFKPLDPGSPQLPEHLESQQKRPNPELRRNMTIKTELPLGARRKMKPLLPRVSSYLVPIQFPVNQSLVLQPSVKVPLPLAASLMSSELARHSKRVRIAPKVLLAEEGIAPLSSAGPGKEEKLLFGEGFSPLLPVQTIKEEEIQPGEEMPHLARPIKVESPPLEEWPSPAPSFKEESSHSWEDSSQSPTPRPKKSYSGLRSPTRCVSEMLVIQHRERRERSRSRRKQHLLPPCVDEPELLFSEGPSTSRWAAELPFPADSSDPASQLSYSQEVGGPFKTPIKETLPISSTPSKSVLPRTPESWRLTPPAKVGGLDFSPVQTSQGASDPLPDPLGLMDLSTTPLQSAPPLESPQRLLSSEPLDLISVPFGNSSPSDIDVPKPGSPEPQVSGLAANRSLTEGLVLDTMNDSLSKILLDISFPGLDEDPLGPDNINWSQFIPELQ

[3] = tested on: cultured human tumor cells
[4] = tested on: subcutaneous human tumor xenografts; conditions: for mitotic accumulation and apoptosis in xenografts / tolerability of efficacious doses: mouse, in vivo; for tolerability of efficacious doses: po; for tumor growth: oral administration (MLN8237: repeated) at well tolerated doses
[5] = biological target: T2, Aurora A (Homo sapiens, UniProt O14965); conditions: in vitro
T2 sequence (O14965 whole entry): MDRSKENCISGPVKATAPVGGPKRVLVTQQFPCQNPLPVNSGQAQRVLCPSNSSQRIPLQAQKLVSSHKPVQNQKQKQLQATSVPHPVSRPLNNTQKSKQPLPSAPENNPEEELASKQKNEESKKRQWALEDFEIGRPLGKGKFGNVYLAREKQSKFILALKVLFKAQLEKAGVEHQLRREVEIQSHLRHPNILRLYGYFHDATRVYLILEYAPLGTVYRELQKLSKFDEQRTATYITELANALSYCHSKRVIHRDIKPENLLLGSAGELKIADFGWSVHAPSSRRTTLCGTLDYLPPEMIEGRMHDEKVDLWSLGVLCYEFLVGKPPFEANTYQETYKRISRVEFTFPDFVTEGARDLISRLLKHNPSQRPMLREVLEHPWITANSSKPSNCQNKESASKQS

[6] = biological target: T2, Aurora A; conditions: cultured cells
[7] = tested on: cells; conditions: reviewed in Agnese et al. 2007
[8] = tested on: human tumor types; conditions: in vivo, wide range of human tumor types (Pan et al. 2008)
[9] = tested on: leukemia, colon and pancreatic tumors
[10] = tested on: patients; conditions: phase I; dose levels well below those which cause dose-limiting toxicity (ASCO 2008 abstract #3009)
[11] = tested on: solid tumors
[12] = in vivo
[13] = biological target: aurora B (Homo sapiens, UniProt Q96GD4); conditions: at efficacious concentrations
Sequence of aurora B (Q96GD4 whole entry): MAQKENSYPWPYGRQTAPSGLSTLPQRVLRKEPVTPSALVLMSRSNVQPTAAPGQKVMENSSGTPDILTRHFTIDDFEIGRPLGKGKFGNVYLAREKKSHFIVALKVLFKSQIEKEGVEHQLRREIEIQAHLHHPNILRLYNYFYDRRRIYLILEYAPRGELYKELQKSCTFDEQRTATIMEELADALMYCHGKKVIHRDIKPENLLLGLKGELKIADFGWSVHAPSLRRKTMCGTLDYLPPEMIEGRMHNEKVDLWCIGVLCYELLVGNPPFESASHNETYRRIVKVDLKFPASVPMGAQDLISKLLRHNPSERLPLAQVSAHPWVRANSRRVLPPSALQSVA

[14] = tested on: melanoma cells; conditions: in vitro (Ghosh et al. 2005)
[15] = tested on: patients

CC(=O)NCC(=O)N1[C@@H]2CC[C@H]1c1ccc(Nc3ncc(C(F)(F)F)c(NC4CCC4)n3)cc12 [PF-03814735]
toxicities [1]: tolerable toxicities

(D-Arg)9-p19ARF 26-44: small peptide that blocks FOXM1; rrrrrrrrrrKFVRSRRPRTAS-CALAFVN containing nine D-Arg residues at the amino terminus ([dR][dR][dR][dR][dR][dR][dR][dR][dR]KFVRSRRPRTASCALAFVN; not fully specified; printed as rrrrrrrrrrKFVRSRRPRTAS-CALAFVN; UniProt Q64364 26-44, looked up, fragment)
action on FOXM1 ([2]; Gusarova et al. 2007): blocks FOXM1 | effects in vitro and in vivo ([2]; both in vitro and in vivo): growth inhibition, reduction in levels of survivin, aurora B kinase, and PLK1 as well as inducing apoptosis

O=C(O)c1ccc(Nc2ncc3c(n2)-c2ccc(Cl)cc2C(c2c(F)cccc2F)=NC3)cc1 [MLN8054]
toxicities [1]: tolerable toxicities | effects on cultured human tumor cells [3]: G2/M accumulation and spindle defects and inhibits proliferation | duration of tumor growth inhibition ([4]; after end of treatment): sustained after discontinuing MLN8054 treatment | mitotic accumulation and apoptosis in xenografts [4]: induced mitotic accumulation and apoptosis | tolerability of efficacious doses [4]: well tolerated doses | tumor growth [4]: dramatically inhibited | Aurora A kinase activity [5]: inhibits recombinant Aurora A kinase activity | selectivity Aurora A over Aurora B [6]: selective for Aurora A over the family member Aurora B

O=C(Nc1cccc(Cl)c1)Nc1ncc(CCNc2ncnc3ccsc23)s1 [SNS-314]
toxicities [1]: tolerable toxicities

Cc1cc(Nc2cc(N3CCN(C)CC3)nc(Sc3ccc(NC(=O)C4CC4)cc3)n2)[nH]n1 [VX-680]
effect on cell proliferation, spindle formation, DNA copies, cell death [7]: block cell proliferation, disrupt bipolar spindle formation, and lead to accumulation of cells with 4N or greater numbers of chromosomal DNA copies and eventual cell death | cell-cycle progression and apoptosis [8]: blocks cell-cycle progression and induces apoptosis | tolerability of efficacious doses ([9]; xenograft models): well-tolerated doses | tumor regression ([9]; xenograft models): regression of leukemia, colon and pancreatic tumors | tumor growth ([9]; xenograft models (Harrington et al. 2004)): substantial inhibition of tumor growth | patients who achieved stable disease [10]: three of 16

COCC[n+]1c2c(n(Cc3cnccn3)c1C)C(=O)c1ccccc1C2=O.[Br-] [YM155]
toxicity ([11]; phase I): tolerable toxicity | clinical activity ([11]; phase I (2008 abstracts #3536, 5135, 8538)): clinical activity in solid tumors

COc1cc(Nc2ncc3c(n2)-c2ccc(Cl)cc2C(c2c(F)cccc2OC)=NC3)ccc1C(=O)O [MLN8237]
effects on cultured human tumor cells [3]: mitotic spindle abnormalities, mitotic accumulation, inhibition of cell proliferation and apoptosis | pharmacokinetic profile [12]: favorable pharmacokinetic profile | oral bioavailability ([12]; po): orally bioavailable | aurora B inhibition [13]: did not appreciably inhibit aurora B | mitotic accumulation and apoptosis in xenografts [4]: induced mitotic accumulation and apoptosis | tolerability of efficacious doses [4]: well tolerated doses | tumor growth [4]: dramatic tumor growth inhibition in all tumor models evaluated | accumulation of mitotic cells ([4]; single oral administration): time dependent accumulation of mitotic cells

COc1cc2c(Nc3ccc(NC(=O)c4ccccc4)cc3)ncnc2cc1OCCCN1CCOCC1 [ZM 447439]
toxicities [1]: tolerable toxicities

C=CCc1ccc(O)c(OC)c1 [Eugenol]
E2F1 targeting and killing of melanoma cells [14]: target E2F1 and kill melanoma cells

Cc1cc(Nc2ncc(F)c(NC3C4C=CC(C4)C3C(N)=O)n2)ccc1N1CCN(C)CC1 (stereo not shown) [AS703569]
toxicities [1]: tolerable toxicities

CCN(CCCOc1ccc2c(Nc3cc(CC(=O)Nc4cccc(F)c4)n[nH]3)ncnc2c1)CCOP(=O)(O)O [AD1152]
toxicity ([15]; phase I): neutropenia as the only significant toxicity | patients with significant disease stabilization ([15]; phase I (ASCO 2008 abstract #3008)): 5 of 12

CO[C@@H](C(=O)N1Cc2n[nH]c(NC(=O)c3ccc(N4CCN(C)CC4)cc3)c2C1)c1ccccc1 [PHA-739358]
toxicities [1]: tolerable toxicities
